From US5013719A, “Method of effecting immunosuppression” (Merrell Dow Pharmaceuticals Inc., priority 1988, dated 1991)

System: cytolytic T lymphocyte induction (51Cr labeled P815 target cells)
Assay: Cytolytic T-lymphocyte induction in vivo (splenic cytolytic activity, 4-hour 51Cr release assay)
Parameters: species or system C57BL/6 mice
Conditions: DFMO 2% in drinking water from day 1; splenic CTL activity day 10; vs vehicle treated control
Method: Alloreactive cytolytic T-lymphocytes (CTL) are generated in vivo by injecting C57BL/6 mice intraperitoneally with allogenic P815 (H-2^d) cells (10^7) on day 0.
Splenic cytolytic activity, which represents a direct measurement of immune response, is assessed by a 4-hour ^51 Cr release assay as described by Bowlin et al., Cell. […] Effector cells are characterized as T-cells based on surface phenotype (Thy 1.2^+, Lyt 2.2^+, L3T4^-) and allo-specificity (H-^2 d) as described by Bowlin et al., Cell Immunnol.
^a C57BL/6 mice were injected with allogeneic P815 cells on day 0.
DFMO was administered continuously, starting on day 1, in drinking water.
^b Splenic cytolytic T lymphocyte activity was assessed on day 10
utilizing ^51 Cr labeled P815 target cells. Data is expressed as %
inhibition compared with vehicle treated control.

SMILES: NCCC[C@](N)(C(=O)O)C(F)F [DFMO, α-difluoromethylornithine]
- Cytolytic T Lymphocyte Induction % Inhibition (mean ± S.E., n = 3): 10 ± 0.5%
